The results in this text go back to patent US10150751B2 (Merck Sharp & Dohme Corp., priority 2014, dated 2018).

For test [1], the target named is human orexin-2 receptor (Homo sapiens (Human), UniProt O43614). The test is described as follows: FLIPR Ca2+ flux assay, hOX2R. The format is cell-based. The conditions noted are these: CHO cells expressing the human orexin-2 receptor; agonist 70 pM Ala-6,12 orexin-A. The procedure: The utility of the compounds in accordance with the present invention as orexin receptor OX1R and/or OX2R antagonists may be readily determined without undue experimentation by methodology well known in the art, including the “FLIPR Ca^2+ Flux Assay” (Okumura et al., Biochem. Biophys. Res. Comm. 280:976-981, 2001). In a typical experiment the OX1 and OX2 receptor antagonistic activity of the compounds of the present invention was determined in accordance with the following experimental method. For intracellular calcium measurements, Chinese hamster ovary (CHO) cells expressing the rat orexin-1 receptor or the human orexin-2 receptor, are grown in Iscove's modified DMEM containing 2 mM L-glutamine, […], 1% hypoxanthine-thymidine supplement, 100 U/ml penicillin, 100 μg/ml streptomycin and 10% heat-inactivated fetal calf serum (FCS). The cells are seeded at 20,000 cells/well into Becton-Dickinson black 384-well clear bottom sterile plates coated with poly-D-lysine. All reagents were from GIBCO-Invitrogen Corp. The seeded plates are incubated overnight at 37° C. and 5% CO2. Ala-6,12 human orexin-A as the agonist is prepared as a 1 mM stock solution in 1% bovine serum albumin (BSA) and diluted in assay buffer (HBSS containing 20 mM HEPES, 0.1% BSA and 2.5 mM probenecid, pH7.4) for use in the assay at a final concentration of 70pM. Test compounds are prepared as 10 mM stock solution in DMSO, then diluted in 384-well plates, first in DMSO, then assay buffer. On the day of the assay, cells are washed 3 times with 100 μl assay buffer and then incubated for 60 min (37° C., 5% CO2) in 60 μl assay buffer containing 1 μM Fluo-4AM ester, 0.02% pluronic acid, and 1% BSA. The dye loading solution is then aspirated and cells are washed 3 times with 100 μl assay buffer. 30 μl of that same buffer is left in each well. Within the Fluorescent Imaging Plate Reader (FLIPR, Molecular Devices), test compounds are added to the plate in a volume of 25 μl, incubated for 5 min and finally 25 μl of agonist is added. Fluorescence is measured for each well at 1 second intervals for 5 minutes and the height of each fluorescence peak is compared to the height of the fluorescence peak induced by 70 pM Ala-6,12 orexin-A with buffer in place of antagonist. For each antagonist, IC50 value (the concentration of compound needed to inhibit 50% of the agonist response) is determined. Alternatively, compound potency can be assessed by a radioligand binding assay (described in Bergman et. al. Bioorg. Med. Chem. Lett. 2008, 18, 1425-1430) in which the inhibition constant (Ki) is determined in membranes prepared from CHO cells expressing either the OX1 or OX2 receptor. The intrinsic orexin receptor antagonist activity of a compound which may be used in the present invention may be determined by these assays.
Chain of human orexin-2 receptor (O43614 whole entry): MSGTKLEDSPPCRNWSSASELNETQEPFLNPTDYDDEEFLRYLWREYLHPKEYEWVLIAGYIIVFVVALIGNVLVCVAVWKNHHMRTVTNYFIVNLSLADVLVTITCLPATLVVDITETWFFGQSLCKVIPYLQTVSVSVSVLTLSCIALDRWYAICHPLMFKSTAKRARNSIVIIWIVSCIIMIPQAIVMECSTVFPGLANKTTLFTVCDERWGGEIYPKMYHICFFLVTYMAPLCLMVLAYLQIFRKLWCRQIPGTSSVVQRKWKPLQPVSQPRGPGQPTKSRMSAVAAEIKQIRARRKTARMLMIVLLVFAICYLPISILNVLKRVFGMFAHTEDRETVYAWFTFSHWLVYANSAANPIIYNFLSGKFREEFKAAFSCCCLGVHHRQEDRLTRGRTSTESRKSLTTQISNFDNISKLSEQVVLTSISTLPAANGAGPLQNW
(In general: Calcium flux is commonly read through the fluorescence of an indicator in the cells.)

Test [2] has as its target hOX1R (orexin-1 receptor) (Homo sapiens, UniProt O43613). As to the kind of experiment: FLIPR Ca2+ flux assay, hOX1R. The conditions noted are these: CHO cells expressing the orexin-1 receptor (head: hOX1R; method: rat); agonist 70 pM Ala-6,12 orexin-A. The format is cell-based.

The structures appear in SMILES notation.

On to `C[C@@H]1C[C@@H](Nc2nccc3ccccc23)CN1C(=O)c1ccccc1-n1nccn1` [Example 12, (2-(2H-1,2,3-triazol-2-yl)phenyl)((2R,4R)-4-(isoquinolin-1-ylamino)-2-methylpyrrolidin-1-yl)methanone], for which the IC50 (usually the concentration at which inhibition is half-maximal) in test [1] was found to be 15.3 nM; in test [2] it was 257 nM.

Take `C[C@@H]1C[C@@H](Nc2cc(C#N)ccn2)CN1C(=O)c1ccccc1-n1nccn1` [Example 19, 2-(((3R,5R)-1-(2-(2H-1,2,3-triazol-2-yl)benzoyl)-5-methylpyrrolidin-3-yl)amino)isonicotinonitrile]: the IC50 is 22.9 nM in test [1] and over 10000 nM in test [2].

In the case of `CCOC(=O)c1c(OC)ccnc1N[C@@H]1C[C@@H](C)N(C(=O)c2ccccc2-n2nccn2)C1` [Example 33, Ethyl 2-(((3R,5R)-1-(2-(2H-1,2,3-triazol-2-yl)benzoyl)-5-methylpyrrolidin-3-yl)amino)-4-methoxynicotinate], the IC50 amounted to 31.1 nM in test [1] and 4070 nM in test [2].

In the case of `C[C@@H]1C[C@@H](N(C)c2cc(Br)ccn2)CN1C(=O)c1ccccc1-n1nccn1` [Example 35, (2-(2H-1,2,3-Triazol-2-yl)phenyl)((2R,4R)-4-((4-bromopyridin-2-yl)(methyl)amino)-2-methylpyrrolidin-1-yl)methanone], the IC50 in test [1] amounted to 136 nM; in test [2], 2250 nM.

Take `C[C@@H]1C[C@@H](Nc2cc(C(F)F)ccn2)CN1C(=O)c1cscc1-n1nccn1` [Example 28, (4-(2H-1,2,3-triazol-2-yl)thiophen-3-yl)((2R,4R)-4-((4-(difluoromethyl)pyridin-2-yl)amino)-2-methylpyrrolidin-1-yl)methanone]: the values for the IC50 in test [1] and in test [2] were 102 nM and over 10000 nM, respectively.

With `C[C@@H]1C[C@@H](Nc2cc(OCC(F)F)ccn2)CN1C(=O)c1ccccc1-n1ncnn1` [Example 3, (2-(2H-tetrazol-2-yl)phenyl)((2R,4R)-4-((4-(2,2-difluoroethoxy)pyridin-2-yl)amino)-2-methylpyrrolidin-1-yl)methanone], the IC50 in test [1] is 367 nM; in test [2] it was over 10000 nM.

Consider `COc1c(C#N)ccnc1N[C@@H]1C[C@@H](C)N(C(=O)c2ccccc2-n2nccn2)C1` [Example 39, 2-(((3R,5R)-1-(2-(2H-1,2,3-Triazol-2-yl)benzoyl)-5-methylpyrrolidin-3-yl)amino)-3-methoxyisonicotinonitrile], for which the IC50 in test [1] was 40.8 nM; in test [2], over 10000 nM.

Regarding `CC(C)Oc1ccnc(N[C@@H]2C[C@@H](C)N(C(=O)c3ccccc3-n3nccn3)C2)c1` [Example 20, (2-(2H-1,2,3-Triazol-2-yl)phenyl)((2R,4R)-4-((4-isopropoxypyridin-2-yl)amino)-2-methylpyrrolidin-1-yl)methanone], the IC50 in test [1] is 39.8 nM; in test [2], 2800 nM.

Turning to `Cc1c(C#N)ccnc1N[C@@H]1C[C@@H](C)N(C(=O)c2ccccc2-n2nccn2)C1` [Example 36, 2-(((3R,5R)-1-(2-(2H-1,2,3-Triazol-2-yl)benzoyl)-5-methylpyrrolidin-3-yl)amino)-3-methylisonicotinonitrile], the half-inhibitory concentration (IC50) in test [1] came to 23.6 nM; in test [2] it was 3350 nM.

Regarding `CCOc1ncccc1C(=O)N1C[C@H](Nc2cc(OCC(F)F)ccn2)C[C@H]1C` [Example 6, ((2R,4R)-4-((4-(2,2-difluoroethoxy)pyridin-2-yl)amino)-2-methylpyrrolidin-1-yl)(2-ethoxypyridin-3-yl)methanone], the IC50 in test [1] is 989 nM; in test [2], over 10000 nM.

As to `Cc1ccnc(N[C@@H]2C[C@@H](C)N(C(=O)c3ccccc3-n3nccn3)C2)c1` [Example 16, (2-(2H-1,2,3-triazol-2-yl)phenyl)((2R,4R)-2-methyl-4-((4-methylpyridin-2-yl)amino)pyrrolidin-1-yl)methanone], the values for the IC50 in test [1] and in test [2] were 75.9 nM and 4070 nM, respectively.

Regarding `C[C@@H]1C[C@@H](Nc2cc(OCC(F)F)ccn2)CN1C(=O)c1cccc2c1CCC2` [Example 7, ((2R,4R)-4-((4-(2,2-difluoroethoxy)pyridin-2-yl)amino)-2-methylpyrrolidin-1-yl)(2,3-dihydro-1H-inden-4-yl)methanone], the IC50 in test [1] was 2000 nM; in test [2] it was over 10000 nM.

Turning to `CCOc1ccnc(N[C@@H]2C[C@@H](C)N(C(=O)c3ccccc3-n3nccn3)C2)c1C(=O)OC` [Example 34, Methyl 2-(((3R,5R)-1-(2-(2H-1,2,3-triazol-2-yl)benzoyl)-5-methylpyrrolidin-3-yl)amino)-4-ethoxynicotinate], the figures for the IC50 in test [1] and in test [2] were 66.2 nM and over 10000 nM, respectively.

For the molecule `COc1ccnc(N[C@@H]2C[C@@H](C)N(C(=O)c3ccccc3C3(C#N)CC3)C2)c1` [Example 24, 1-(2-((2R,4R)-4-((4-Methoxypyridin-2-yl)amino)-2-methylpyrrolidine-1-carbonyl)phenyl)cyclopropanecarbonitrile], the IC50 in test [1] was 23.9 nM; in test [2], 2720 nM.

Consider `C[C@@H]1C[C@@H](Nc2cc(C#N)ccn2)CN1C(=O)c1ccccc1-c1ncccn1` [Example 30, 2-(((3R,5R)-5-Methyl-1-(2-(pyrimidin-2-yl)benzoyl)pyrrolidin-3-yl)amino)isonicotinonitrile], for which the IC50 in test [1] is 31.1 nM; in test [2] it was over 10000 nM.

Regarding `C[C@@H]1C[C@@H](Nc2cc(Cl)ccn2)CN1C(=O)c1ccccc1-n1nccn1` [Example 15, (2-(2H-1,2,3-triazol-2-yl)phenyl)((2R,4R)-4-((4-chloropyridin-2-yl)amino)-2-methylpyrrolidin-1-yl)methanone], the IC50 is 23.1 nM in test [1] and 1160 nM in test [2].

As to `COc1cccnc1N[C@@H]1C[C@@H](C)N(C(=O)c2nccnc2-c2ccccn2)C1` [Example 44, ((2R,4R)-4-((3-Methoxypyridin-2-yl)amino)-2-methylpyrrolidin-1-yl)(3-(pyridin-2-yl)pyrazin-2-yl)methanone], the IC50 in test [1] was determined as 2370 nM; in test [2], 10000 nM.

Take `C[C@@H]1C[C@@H](Nc2cc(OCC(F)F)ccn2)CN1C(=O)c1ccsc1-c1ncccn1` [Example 4]: the IC50 in test [1] was 520 nM; in test [2], over 10000 nM.

With `CCOc1ccnc(N[C@@H]2C[C@@H](C)N(C(=O)c3ccccc3-n3nccn3)C2)c1` [Example 21, (2-(2H-1,2,3-triazol-2-yl)phenyl)((2R,4R)-4-((4-ethoxypyridin-2-yl)amino)-2-methylpyrrolidin-1-yl)methanone], the IC50 in test [1] was determined as 31.5 nM; in test [2], 3990 nM.

Consider `Cc1c(C#N)ccnc1N(C)[C@@H]1C[C@@H](C)N(C(=O)c2ccccc2-n2nccn2)C1` [Example 37, 2-(((3R,5R)-1-(2-(2H-1,2,3-Triazol-2-yl)benzoyl)-5-methylpyrrolidin-3-yl)(methyl)amino)-3-methylisonicotinonitrile], for which the IC50 was 3210 nM in test [1] and over 10000 nM in test [2].

As to `COC(=O)c1c(C#N)ccnc1N[C@@H]1C[C@@H](C)N(C(=O)c2ccccc2-n2nccn2)C1` [Example 38, Methyl 2-(((3R,5R)-1-(2-(2H-1,2,3-triazol-2-yl)benzoyl)-5-methylpyrrolidin-3-yl)amino)-4-cyanonicotinate], the IC50 was found to be 14.6 nM in test [1] and 1550 nM in test [2].

Consider `C[C@@H]1C[C@@H](Nc2cc(OCC(F)F)ccn2)CN1C(=O)c1ccsc1-n1nccn1` [Example 5], for which the IC50 in test [1] was 625 nM; in test [2] it was over 10000 nM.
